This experiment deals with human STAT6 (Homo sapiens (Human), UniProt P42226). Put plainly: Surface plasmon resonance assay (Biacore 8K, binding to immobilized STAT6). As to conditions: human STAT6 aa122-658, N-terminal His-tag, CM5 chip, 25° C.; geometric mean; read-out: STAT6 SPR Kd. How it is done: Biacore instruments from the 8K-series (Cytiva) were used, and measurements were performed at 25° C. Human STAT6 (truncated, aa122-658, with N-terminal His-tag, expressed in insect cells) was immobilized in the active flow cells on a CM5 chip using amine-coupling (default settings) at 10 μg/ml in 10 mM acetate buffer pH 5.5, at a contact time of 120-420 sec. and a flow rate of 10 μl/min. Reference flow cells were deactivated using blank immobilization. PBS-P+ (Cytiva) supplemented with 2% DMSO was used as running buffer, and solvent correction was applied. Compounds were tested by multi-cycle kinetics injections using a contact time of 60 sec., dissociation time of up to 300 sec., and a flow rate of 30 μl/min.
Chain of human STAT6 (P42226 122-658): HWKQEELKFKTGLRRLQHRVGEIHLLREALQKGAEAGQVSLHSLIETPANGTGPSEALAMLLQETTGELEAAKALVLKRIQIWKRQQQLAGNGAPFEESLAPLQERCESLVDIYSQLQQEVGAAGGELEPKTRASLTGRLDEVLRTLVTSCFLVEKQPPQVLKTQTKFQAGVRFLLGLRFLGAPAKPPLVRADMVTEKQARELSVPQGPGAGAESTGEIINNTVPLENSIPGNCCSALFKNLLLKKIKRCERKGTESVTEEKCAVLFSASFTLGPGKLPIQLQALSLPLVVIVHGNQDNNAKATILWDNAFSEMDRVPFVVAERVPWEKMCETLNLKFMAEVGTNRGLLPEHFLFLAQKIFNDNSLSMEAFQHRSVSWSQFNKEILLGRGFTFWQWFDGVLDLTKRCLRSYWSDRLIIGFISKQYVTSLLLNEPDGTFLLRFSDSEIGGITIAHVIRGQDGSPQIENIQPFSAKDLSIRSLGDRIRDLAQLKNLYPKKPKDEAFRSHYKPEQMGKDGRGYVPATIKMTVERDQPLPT
Solvent-corrected, reference-subtracted and blank-corrected data was processed and binding isotherms were fitted according to a single report point from each sensorgram (Standard: Late binding (5 sec. before injection end); alternative: Earlier report point according to binding profile). Data fitting was done both with unfixed Rmax and with Rmax fixed to the theoretical value* assuming 1:1 binding to allow processing of data from both weak and strong binders as well as to evaluate binding stoichiometry.
Positive controls were run at the beginning, during, and at the end of the screen to evaluate surface activity.
As to “4-(1-((4-(6-Amino-5-methoxypyridin-3-yl)-1-methyl-1H-pyrrolo[2,3-b]pyridin-2-yl)methyl)piperidin-4-yl)-N,N-dimethylbenzamide [Example 1k7]”, the Kd was found to be 835 nM. Take `CC(=O)Nc1ccc(-c2ccnc3c2cc(CN2CC[C@H](c4ccc(C(=O)N(C)C)cc4)[C@@H](C)C2=O)n3C)cc1` (single isomer, unassigned) [1aa2′]: the dissociation constant (Kd) was determined as 116 nM. As for `CC(=O)Nc1ccc(-c2ccnc3c2cc(CN2CC[C@@H](c4ccc(C(=O)N(C)C)cc4)[C@H](C)C2=O)n3C)cc1` (single isomer, unassigned) [Example 1aa2], the figure is 203 nM. Consider `CN(C)C(=O)c1ccc(C2CCN(Cc3cc4c(-c5ccc(N)nc5)ccnc4n3C)C(=O)C2)cc1` (single isomer, unassigned) [Example 1ae5], for which the Kd was 46.4 nM. As for `CNc1ccc(-c2ccnc3c2cc([C@H](C)N2CCC(c4ccc(C(=O)N(C)C)cc4)CC2)n3C)cn1` (single isomer, unassigned) [Example 1af7], the figure is 222 nM; as for `C[C@H]1C[C@H](c2ccc(C(=O)N(C)C)cc2)CCN1Cc1cc2c(-c3ccc(N)nc3C#N)ccnc2n1C` (single isomer, unassigned) [Example 1q2], 2560 nM; as for `C[C@@H]1C[C@@H](c2ccc(C(=O)N(C)C)cc2)CCN1Cc1cc2c(-c3ccc(N)nc3C#N)ccnc2n1C` (single isomer, unassigned) [Example 1q3], 4240 nM. In the case of `C[C@@H]1C[C@@H](c2ccc(C(=O)N(C)C)cc2)CCN1Cc1cc2c(-c3ccc(N)cn3)ccnc2n1C` (single isomer, unassigned) [Example 1q7] it was 5350 nM; in that of `CNc1ccc(-c2ccnc3c2cc(CN2CC[C@H](c4ccc(C(=O)N(C)C)cc4)[C@@H](F)C2)n3C)cn1` (single isomer, unassigned) [Example 1s24], 36.7 nM; in that of `CNc1ccc(-c2ccnc3c2cc(CN2CC[C@@H](c4ccc(C(=O)N(C)C)cc4)[C@H](F)C2)n3C)cn1` (single isomer, unassigned) [Example 1s25], 35.3 nM. For `[2H]C([2H])([2H])N(C(=O)c1ccc(C2=CCN(C(C)c3cc4c(-c5ccc(N)nc5C#N)ccnc4n3C)CC2)cc1)C([2H])([2H])[2H]` (stereo in doubt) [Example 1af22, (R)-4-(1-(1-(4-(6-Amino-2-cyanopyridin-3-yl)-1-methyl-1H-pyrrolo[2,3-b]pyridin-2-yl)ethyl)-1,2,3,6-tetrahydropyridin-4-yl)-N,N-bis(methyl-d3)benzamide], the Kd was determined as 6600 nM. On to `[2H]C([2H])([2H])N(C(=O)c1ccc(C2=CCN(C(C)c3cc4c(-c5ccc(N)nc5C#N)ccnc4n3C)CC2)cc1)C([2H])([2H])[2H]` (stereo in doubt) [Example 1af24, (S)-4-(1-(1-(4-(6-amino-2-cyanopyridin-3-yl)-1-methyl-1H-pyrrolo[2,3-b]pyridin-2-yl)ethyl)-1,2,3,6-tetrahydropyridin-4-yl)-N,N-bis(methyl-d3)benzamide], for which the Kd was determined as 51.3 nM. As to `CNc1ccc(-c2ccnc3c2cc(CN2CC[C@H](c4ccc(C(=O)N(C)C)cc4)[C@@H](F)C2)n3C)nc1` (stereo in doubt) [Example 1o18, 4-((3R,4R)-3-fluoro-1-((1-methyl-4-(5-(methylamino)pyridin-2-yl)-1H-pyrrolo[2,3-b]pyridin-2-yl)methyl)piperidin-4-yl)-N,N-dimethylbenzamide], the Kd came to 139 nM.

For the molecule `C[C@H]1C[C@H](c2ccc(C(=O)N(C)C)cc2)CCN1Cc1cc2c(-c3ccc(N)cn3)ccnc2n1C` (stereo in doubt) [Example 1q8, N,N-dimethyl-4-[(2S,4R)-1-[[4-(5-amino-2-pyridyl)-1-methyl-pyrrolo[2,3-b]pyridin-2-yl]methyl]-2-methyl-4-piperidyl]benzamide], the dissociation constant (Kd) was 3980 nM. In the case of `CNc1ccc(-c2ccnc3c2cc(CN2CCC(c4ccc(C(=O)N(C)C)cc4)CC2=O)n3C)cn1` (stereo in doubt) [Example 1s3, N,N-Dimethyl-4-[(4R)-1-[[1-methyl-4-[6-(methylamino)-3-pyridyl]pyrrolo[2,3-b]pyridin-2-yl]methyl]-2-oxo-4-piperidyl]benzamide], the Kd stood at 23.2 nM. On to `CNc1ccc(-c2ccnc3c2cc(CN2CCC(c4ccc(C(=O)N(C)C)cc4)CC2=O)n3C)cn1` (stereo in doubt) [Example 1s4, N,N-dimethyl-4-[(4S)-1-[[1-methyl-4-[6-(methylamino)-3-pyridyl]pyrrolo[2,3-b]pyridin-2-yl]methyl]-2-oxo-4-piperidyl]benzamide], for which the Kd turned out to be 51.1 nM.

Turning to `CNc1ccc(-c2ccnc3c2cc(CN2CC[C@@H](c4ccc(C(=O)N(C)C)cc4)[C@@H](F)C2)n3C)cn1` (stereo in doubt) [Example 1s27, N,N-Dimethyl-4-[(3R,4S)-3-fluoro-1-[[1-methyl-4-[6-(methylamino)-3-pyridyl]pyrrolo[2,3-b]pyridin-2-yl]methyl]-4-piperidyl]benzamide], the Kd was 40.6 nM. In the case of `CN(C)C(=O)c1ccc(C2CCN(Cc3cc4c(-c5ccc(N)c(O)n5)ccnc4n3C)CC2)cc1` [Example 1ad1, 4-(1-((4-(5-Amino-6-hydroxypyridin-2-yl)-1-methyl-1H-pyrrolo[2,3-b]pyridin-2-yl)methyl)piperidin-4-yl)-N,N-dimethylbenzamide] it was 79.4 nM; in that of `COc1nc(-c2ccnc3c2cc(CN2CCC(c4ccc(C(=O)N(C)C)cc4)CC2)n3C)ccc1N` [Example 1ad2, 4-(1-((4-(5-Amino-6-methoxypyridin-2-yl)-1-methyl-1H-pyrrolo[2,3-b]pyridin-2-yl)methyl)piperidin-4-yl)-N,N-dimethylbenzamide], 54 nM; in that of `CNc1ccc(-c2ccnc3c2cc(CN2CCC(c4ccc(C(=O)N(C)C)cc4)CC2)n3C(C)C)cn1` [Example 1ad3, 4-[1-[[1-iso-Propyl-4-[6-(methylamino)-3-pyridyl]pyrrolo[2,3-b]pyridin-2-yl]methyl]-4-piperidyl]-N,N-dimethyl-benzamide], 2730 nM. On to `CN(C)C(=O)c1ccc([C@@H]2CCN(Cc3cc4c(-c5ccc(N)nc5)ccnc4n3C)C(=O)C2)cc1` [Example 1ae4, (R)—N,N-Dimethyl-4-[1-[[4-(6-amino-3-pyridyl)-1-methyl-pyrrolo[2,3-b]pyridin-2-yl]methyl]-2-oxo-4-piperidyl]benzamide], for which the Kd was 24.5 nM. In the case of `CN(C)C(=O)c1ccc(N2CCN(Cc3cc4c(-c5ccc(N)nc5)ccnc4n3C)C(=O)C2)cc1` [Example 1ae7, 4-[4-[[4-(6-Amino-3-pyridyl)-1-methyl-pyrrolo[2,3-b]pyridin-2-yl]methyl]-3-oxo-piperazin-1-yl]-N,N-dimethyl-benzamide] it was 67.8 nM; in that of `[2H]C([2H])([2H])N(C(=O)c1ccc(C2CCN(Cc3cc4c(-c5ccc(N)cn5)ccnc4n3C)CC2)cc1)C([2H])([2H])[2H]` [Example 1ae10, 4-[1-[[4-(5-Amino-2-pyridyl)-1-methyl-pyrrolo[2,3-b]pyridin-2-yl]methyl]-4-piperidyl]-N,N-bis(trideuteriomethyl)benzamide], 25.4 nM; in that of `CNC(=O)c1ccc(C2CCN(Cc3cc4c(-c5ccc(N)nc5C#N)ccnc4n3C)CC2)cc1` [Example 1ae14, 4-[1-[[4-(6-Amino-2-cyano-3-pyridyl)-1-methyl-pyrrolo[2,3-b]pyridin-2-yl]methyl]-4-piperidyl]-N-methyl-benzamide], 194 nM. In the case of `[2H]C([2H])([2H])NC(=O)c1ccc(C2CCN(Cc3cc4c(-c5ccc(N)nc5C#N)ccnc4n3C)CC2)cc1` [Example 1ae15, 4-[1-[[4-(6-Amino-2-cyano-3-pyridyl)-1-methyl-pyrrolo[2,3-b]pyridin-2-yl]methyl]-4-piperidyl]-N-(trideuteriomethyl)benzamide] it was 201 nM; in that of `C[C@@H](c1cc2c(-c3ccc(N)nc3)ccnc2n1C)N1CCC(c2ccc(C(=O)N(C)C)cc2)CC1` [Example 1af11, (S)-4-(1-(1-(4-(6-amino-pyridin-3-yl)-1-methyl-1H-pyrrolo[2,3-b]pyridin-2-yl)ethyl)-piperidin-4-yl)-N,N-dimethyl-benzamide], 102 nM.

As to `C[C@@H](c1cc2c(-c3ccc(N)nc3C#N)ccnc2n1C)N1CCC(c2ccc(C(=O)N(C)C)cc2)CC1` [Example 1af13, (S)-4-(1-(1-(4-(6-amino-2-cyanopyridin-3-yl)-1-methyl-1H-pyrrolo[2,3-b]pyridin-2-yl)ethyl)piperidin-4-yl)-N,N-dimethylbenzamide], the equilibrium dissociation constant (Kd) worked out at 691 nM.

With `C[C@@H](c1cc2c(-c3ccc(N)cn3)ccnc2n1C)N1CCC(c2ccc(C(=O)N(C)C)cc2)CC1` [Example 1af15, (S)-4-(1-(1-(4-(5-amino-pyridin-2-yl)-1-methyl-1H-pyrrolo[2,3-b]pyridin-2-yl)-ethyl)piperidin-4-yl)-N,N-dimethylbenzamide], the equilibrium dissociation constant (Kd) was found to be 438 nM. As for `C[C@H](c1cc2c(-c3ccc(N)cn3)ccnc2n1C)N1CCC(c2ccc(C(=O)N(C)C)cc2)CC1` [Example 1af16, (R)-4-(1-(1-(4-(5-aminopyridin-2-yl)-1-methyl-1H-pyrrolo[2,3-b]pyridin-2-yl)ethyl)piperidin-4-yl)-N,N-dimethylbenzamide], the figure is 15.5 nM.

Source of the values: patent publication US20250340551A1, “SMALL MOLECULE MODULATORS OF STAT6” (Gilead Sciences, Inc., priority 2024, published 2025).
